Assay results taken from the supplement of paper PMC10307832.

Assays:
Assay in all cases: relative viability (nuclei count vs DMSO), 5 days (fraction); higher = more cells survive
[1] = compound: CC1=C(C=CC(=C1)[N+](=O)[O-])NS(=O)(=O)C2=C(C=CC(=C2)Cl)Cl [FH535] + CCNC(=O)c1noc(-c2cc(C(C)C)c(O)cc2O)c1-c1ccc(CN2CCOCC2)cc1 [Luminespib] (partner 0.01 µM)
Summary of the method: (§1)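 Five library-drug doses in √10 steps were combined with a fixed anchor-drug dose, or a single drug was given alone, by pin tool to lung cancer cell lines in 1536-well plates the day after seeding. Nuclei were stained and counted after 5 days. Relative viability is the nuclei count in treated wells over that in vehicle wells, taken as the median of duplicate plates.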

[2] = compound: CC1=C(C=CC(=C1)[N+](=O)[O-])NS(=O)(=O)C2=C(C=CC(=C2)Cl)Cl [FH535] + O=C(CCCCCCC(=O)Nc1ccccc1)NO [Vorinostat] (partner 1 µM)
Summary of the method: as §1

[3] = compound: CC1=C(C=CC(=C1)[N+](=O)[O-])NS(=O)(=O)C2=C(C=CC(=C2)Cl)Cl [FH535] + C[C@@H](Oc1cc(-c2cnn(C3CCNCC3)c2)cnc1N)c1c(Cl)ccc(F)c1Cl [Crizotinib] (partner 1 µM)
Summary of the method: as §1

[4] = compound: CC1=C(C=CC(=C1)[N+](=O)[O-])NS(=O)(=O)C2=C(C=CC(=C2)Cl)Cl [FH535] + C[C@]1(O)C[C@@H](c2nc(-c3ccc4ccc(-c5ccccc5)nc4c3)c3c(N)nccn32)C1 [Linsitinib] (partner 1 µM)
Summary of the method: as §1

[5] = compound: CC1=C(C=CC(=C1)[N+](=O)[O-])NS(=O)(=O)C2=C(C=CC(=C2)Cl)Cl [FH535]
Summary of the method: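 Five library-drug doses spaced by √10 were pinned onto vehicle-anchored 1536-well plates of lung cancer cell lines that had been kept overnight at 37 °C. Cells went 5 days without medium change, then were fixed, permeabilised and Hoechst-stained together, imaged at 4× and counted by MetaXpress. Viability is the ratio of treated-well to vehicle-well nuclei, taken as a median over plates. Plates required control CV below 25% and at least one doubling.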

Cell Line	relative viability ([1]; first compound 0.04 µM)	relative viability ([1]; first compound 0.1265 µM)	relative viability ([1]; first compound 0.4 µM)	relative viability ([1]; first compound 1.265 µM)	relative viability ([2]; first compound 0.04 µM)	relative viability ([2]; first compound 0.1265 µM)	relative viability ([2]; first compound 0.4 µM)	relative viability ([2]; first compound 1.265 µM)	relative viability ([3]; first compound 0.04 µM)	relative viability ([3]; first compound 0.1265 µM)	relative viability ([3]; first compound 0.4 µM)	relative viability ([3]; first compound 1.265 µM)	relative viability ([4]; first compound 0.04 µM)	relative viability ([4]; first compound 0.1265 µM)	relative viability ([4]; first compound 0.4 µM)	relative viability ([4]; first compound 1.265 µM)	relative viability ([5]; 0.04 µM)	relative viability ([5]; 0.1265 µM)	relative viability ([5]; 0.4 µM)	relative viability ([5]; 1.265 µM)
NCI-H2085	0.333	0.481	0.41	0.268	0.815	0.849	0.659	0.62	1.03	0.969	0.705	0.695	0.858	0.924	0.892	0.724	0.96	0.967	0.97	0.852
NCI-H2087	0.178	0.141	0.147	0.191	0.566	0.782	0.693	0.551	0.96	0.774	0.765	0.415	0.98	0.994	0.87	0.512	1.05	1.01	0.845	0.683
NCI-H2126	0.841	0.919	0.868	0.514	0.72	0.782	0.727	0.567	0.976	0.984	0.941	0.683	0.746	0.719	0.705	0.619	0.961	1.02	0.888	0.67
NCI-H2228	0.127	0.152	0.156	0.0969	0.585	0.698	0.977	0.593	0.523	0.606	0.486	0.388	0.88	0.668	0.611	0.385	0.884	1.01	0.985	0.896
NCI-H2347	0.617	0.333	0.39	0.752	0.753	0.681	0.608	0.52	0.677	0.617	0.807	0.649	1.02	1.05	0.902	0.812	0.986	0.974	1.02	0.842
NCI-H2405	0.76	0.752	0.602	0.605	0.945	0.965	0.776	0.458	0.816	0.854	0.805	0.725	0.848	1.01	0.953	0.76	0.922	0.967	0.882	0.713
NCI-H3122	0.0802	0.122	0.0923	0.0705	0.901	1.1	0.979	0.966	0.261	0.282	0.253	0.285	0.989	1.07	0.977	0.895	0.933	0.995	0.978	0.885
PC-3 [JPC-3]	0.794	0.76	0.546	0.399	0.757	0.769	0.687	0.529	0.957	0.981	0.885	0.531	0.982	0.924	0.891	0.676	0.971	1.04	0.906	0.621
PC-14	0.126	0.168	0.152	0.117	0.741	0.607	0.782	0.797	0.94	0.917	0.863	0.889	0.996	0.937	0.959	0.851	1.01	1.06	0.989	0.955
RERF-LC-KJ	1.27	1.14	1.13	0.728	0.632	0.64	0.685	0.573	0.856	0.826	0.86	0.671	0.872	0.896	0.854	0.752	0.947	0.998	0.962	0.808
SK-LU-1	0.181	0.21	0.198	0.214	0.731	0.814	0.736	0.456	1.15	0.793	0.849	0.703	1.06	1.17	1.16	0.678	1.03	1.02	0.945	0.758
SK-MES-1	0.814	0.907	0.797	0.56	1.1	1.19	1.02	0.918	0.975	1.01	0.973	0.855	1.04	1.15	1.09	0.948	0.986	1.01	0.963	0.776
SW 1573	0.237	0.346	0.193	0.638	0.614	0.666	1.04	0.66	0.64	0.751	0.865	0.683	0.621	0.785	0.855	0.703	0.908	1.01	0.899	0.836
UMC-11	1.12	1.03	1.02	0.763	0.346	0.384	0.309	0.469	0.639	0.583	0.582	0.626	1.05	1.1	0.962	0.805	0.94	0.877	0.9	0.911
